Molecules are shown by their SMILES. Like-named read-outs stand apart in the source and are kept apart here. Where a SMILES comes first, the peptide text is derived from it. [ ]: non-standard residue; d: D form. The star is where a group is joined. Dolaproine = CO[C@@H]([C@@H]1CCCN1)[C@@H](C)C(=O)O; Dil = CC[C@H](C)[C@H](NC)[C@@H](CC(=O)O)OC; X2 = C[C@@H](N*)[C@@H](O)c1ccccc1; NMeV = CN[C@H](C(=O)O)C(C)C

The target of this assay is BTK (Homo sapiens, UniProt Q06187). The experiment in a line: biochemical.
Sequence of BTK (Q06187 402-655 limits assumed): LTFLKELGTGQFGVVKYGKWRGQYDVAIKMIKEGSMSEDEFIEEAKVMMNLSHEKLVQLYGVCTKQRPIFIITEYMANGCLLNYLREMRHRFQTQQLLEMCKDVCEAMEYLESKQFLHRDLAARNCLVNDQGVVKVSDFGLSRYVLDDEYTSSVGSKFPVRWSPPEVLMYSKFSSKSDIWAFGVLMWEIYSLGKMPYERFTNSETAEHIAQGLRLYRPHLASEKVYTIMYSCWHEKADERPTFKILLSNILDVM
Setting [1] is: read-out: BTK inhibition (%), 0.75 uM BTK, […] probe 3l, 15 min preincubation.

With `Clc1cccc(-c2nnnn2Cc2cccnc2)c1Cl` [PCM-0215469], the inhibition at 10 µM under setting [1] was -0.8%.

Turning to `O=CN1CC/C(=C\c2ccc3c(c2)OCO3)C1=O` [PCM-0215470], the inhibition at 10 µM under setting [1] is 10.8%.

On to `NCCCC[C@@H]1NC(=O)[C@@H](Cc2ccccc2)NC(=O)[C@H](CC(=O)O)NC(=O)CNC(=O)[C@H](CCCN=C(N)N)NC1=O` [PCM-0215471], for which, under setting [1], the inhibition at 10 µM is -10%.

Turning to `NC(=O)c1ccc(-c2nc(-c3ccc4c(c3)OCCO4)c(-c3ccccn3)[nH]2)cc1` [PCM-0215472], the inhibition at 10 µM under setting [1] was determined as 17.2%.

Consider `COc1ccc(Cl)c(Nc2nc3ccccc3nc2NS(=O)(=O)c2cccc(NC(=O)C(C)(C)N)c2)c1` [PCM-0215473], for which the inhibition at 10 µM under setting [1] worked out at 24.1%.

On to `N#Cc1ccc(COC[C@H]2O[C@@H](n3c(NCc4ccc(Cl)c(Cl)c4)nc4c(N)ncnc43)[C@H](O)[C@@H]2O)cc1` [PCM-0215474], for which, under setting [1], the inhibition at 10 µM turned out to be 7.7%.

On to `Cc1ccc(-n2nc(C(C)(C)C)cc2NC(=O)NCc2cc(F)ccc2Oc2ccc3c(cnn3CCO)c2)cc1` [PCM-0215475], for which the inhibition at 10 µM under setting [1] worked out at 28.3%.

As for `NCCOc1cc(C(=O)Nc2cc(OCCN)c3ccccc3n2)nc(C(=O)Nc2cc(OCCN)c3ccccc3n2)c1` [PCM-0215476], under setting [1], the inhibition at 10 µM came to 59.5%.

In the case of `CNc1ncc2cc(-c3cc(NC(=O)NCCC(C)(C)C)c(F)cc3C)c(C)nc2n1` [PCM-0215477], under setting [1], the inhibition at 10 µM amounted to 40.9%.

With `O=C(O)CCNc1cc(N2CCc3ccccc3CC2)nc(-c2ccccn2)n1` [PCM-0215478], the inhibition at 10 µM under setting [1] was -3.1%.

On to `Nc1ccccc1NC(=O)c1cnccn1` [PCM-0215479], for which, under setting [1], the inhibition at 10 µM is -3.9%.

`O=C(c1ccc(F)c(F)c1Nc1ccc(I)cc1F)N1CC(O)([C@@H]2CCCCN2)C1` [PCM-0215480]: the inhibition at 10 µM under setting [1] is -5.5%.

As for `CC(C)Nc1cc(-c2c[nH]c(C(=O)N[C@H](CO)c3cccc(Cl)c3)c2)c(Cl)cn1` [PCM-0215481], the inhibition at 10 µM under setting [1] is 78.6%.

`O=C(Cc1ccccc1)Nc1nnc(CCSCCc2nnc(NC(=O)Cc3ccccc3)s2)s1` [PCM-0215483]: the inhibition at 10 µM under setting [1] turned out to be 5.4%.

Consider `CCCCCCCCC/C(=C\C1=C(C)C(=O)C(OC)=C(OC)C1=O)C(=O)O` [PCM-0215484], for which the inhibition at 10 µM under setting [1] was -13.9%.

On to `CC/C(=C(\c1ccc(O)cc1)c1ccc(OCCNC)cc1)c1ccccc1` [PCM-0215485], for which the inhibition at 10 µM under setting [1] was found to be 14.7%.

As to `CCS(=O)(=O)N1CCC(C(C)n2c(C)c(C(=O)NCc3c(OC)cc(C)[nH]c3=O)c3ccccc32)CC1` (centres unmarked) [PCM-0215486], the inhibition at 10 µM under setting [1] is -3.1%.

Regarding `CCOC(=O)C1=C(N)Oc2ccc(Cl)cc2C1C(C#N)C(=O)OCC` (centres unmarked) [PCM-0215487], the inhibition at 10 µM under setting [1] turned out to be 40.9%.

With `CCNC(=O)C#Cc1ccc2c(C(=Nc3ccc(CN(C)C)cc3)c3ccccc3)c(O)[nH]c2c1` [PCM-0215488], the inhibition at 10 µM under setting [1] was 88.3%.

Turning to `C=CC(=O)Nc1cc(Nc2nccc(-c3c[nH]c4ccccc34)n2)c(OC)cc1N(C)CCN(C)C` [PCM-0215489], the inhibition at 10 µM under setting [1] turned out to be 91.7%.

On to `NC1=N[C@@](c2cccc(-c3cncnc3)c2)(c2ccnc(C(F)F)c2)c2cccc(F)c21` [PCM-0215490], for which the inhibition at 10 µM under setting [1] was -5.4%.

In the case of `COc1cc(C(=O)N2CCC(N3CCN(C)CC3)CC2)ccc1Nc1ncc2c(n1)N(C)c1ccccc1C(=O)N2C` [PCM-0215491], under setting [1], the inhibition at 10 µM was 2.8%.

Take `NCCCC[C@@H]1NC(=O)[C@@H](Cc2ccc(O)cc2)NC(=O)[C@H](CC(=O)O)NC(=O)CNC(=O)[C@H](CCCN=C(N)N)NC1=O` [PCM-0215492]: the inhibition at 10 µM under setting [1] is -10%.

Turning to `Cc1c(C(=O)Nc2ccc(Oc3ccnc4[nH]cc(-c5ccccc5)c34)c(F)c2)c(=O)n(-c2ccc(F)cc2)n1C` [PCM-0215493], the inhibition at 10 µM under setting [1] stood at 95.9%.

Consider `COc1ccc(S(=O)(=O)N(CCO)c2ccccc2CN(C)C/C=C/c2ccc(Cl)cc2)cc1` [PCM-0215495], for which, under setting [1], the inhibition at 10 µM was 70.3%.

`O=C(N/N=C/c1cc(O)c(O)cc1O)c1cc2ccccc2cc1O` [PCM-0215496]: under setting [1], the inhibition at 10 µM came to 77.2%.

With `O=C(NOCCO)c1ccc2cncn2c1Nc1ccc(I)cc1F` [PCM-0215498], the inhibition at 10 µM under setting [1] is 28.3%.

With `CS(=O)(=O)c1ccc(-c2nnc(/C=C/c3nnc(-c4ccc(C#N)cc4)o3)n2-c2ccccc2Cl)nc1` [PCM-0215499], under setting [1], the inhibition at 10 µM came out at 0%.

In the case of `FC(F)(F)Oc1ccc2nc(-c3ccc(OCCOCCOc4ccc(-c5nc6ccc(OC(F)(F)F)cc6[nH]5)nc4)cn3)[nH]c2c1` [PCM-0215500], the inhibition at 10 µM under setting [1] is 32.4%.

For `N#Cc1ccc(-c2c(-c3ncn[nH]3)sc(N3CCOCC3)c2C#N)c(F)c1` [PCM-0215501], the inhibition at 10 µM under setting [1] amounted to 19.3%.

For the compound `C[C@@H](Nc1cc(F)cc(F)c1)c1cc(C(=O)N(C)C)cc2c(=O)cc(N3CCOCC3)oc12` [PCM-0215502], under setting [1], the inhibition at 10 µM is -15.2%.

`CCCC(=O)Nc1ncnc2c1ncn2[C@@H]1O[C@@H]2COP(=O)(O)O[C@H]2[C@H]1OC(=O)CCC` [PCM-0215503]: the inhibition at 10 µM under setting [1] stood at 4.6%.

Turning to `CC1(C)CC[C@]2(NC(=O)C(C)(F)F)CC[C@]3(C)[C@H](C(=O)C=C4[C@@]5(C)C=C(C#N)C(=O)C(C)(C)[C@@H]5CC[C@]43C)[C@@H]2C1` [PCM-0215505], the inhibition at 10 µM under setting [1] was -10%.

Consider `Nc1ncnc2c1nc(Br)n2[C@@H]1O[C@@H]2COP(=O)(O)O[C@H]2[C@H]1O` [PCM-0215506], for which, under setting [1], the inhibition at 10 µM turned out to be 1.5%.

As to `NS(=O)(=O)NCCNc1nonc1C(=Nc1ccc(F)c(Br)c1)NO` [PCM-0215507], under setting [1], the inhibition at 10 µM was -3.1%.

`C=CC(=O)Nc1cccc(C)c1Nc1ncc2cc(-c3c(Cl)c(OC)cc(OC)c3Cl)ccc2n1` [PCM-0215508]: the inhibition at 10 µM under setting [1] is 100%.

As to `CNC1CCC(N(Cc2cccc(-c3ccncc3)c2)C(=O)c2sc3ccccc3c2Cl)CC1` (centres unmarked) [PCM-0215509], under setting [1], the inhibition at 10 µM was -8.5%.

As for `CN1CCN(Cc2ccc(Nc3ncc(Cl)c(Nc4ccccc4S(=O)(=O)N(C)C)n3)cc2)CC1` [PCM-0215510], under setting [1], the inhibition at 10 µM stood at 67.2%.

In the case of `CNc1cc(-c2cccc(Cl)c2Cl)nc(N)n1` [PCM-0215511], the inhibition at 10 µM under setting [1] is -13.1%.

On to `CC(C)C[C@@H]1NC(=O)[C@@H](C(C)C)NC(=O)[C@@H]2CCCN2C(=O)[C@@H](CC(=O)O)NC(=O)[C@@H](Cc2c[nH]c3ccccc23)NC1=O` [PCM-0215512] (cyclo(L[dW][dD]P[dV])), for which, under setting [1], the inhibition at 10 µM was -5.4%.

For `Cc1cc(C)c(CNC(=O)c2cc(-c3ccc(N4CCN(C)CC4)nc3)cc3c2c(C)cn3C(C)C)c(=O)[nH]1` [PCM-0215513], the inhibition at 10 µM under setting [1] is -6.9%.

For `O=c1[nH]c(=O)n([C@H]2C[C@H](O)[C@@H](CO)O2)cc1Br` [PCM-0215515], the inhibition at 10 µM under setting [1] came to 3.9%.

Turning to `O=C(O)CC[C@@H](O)C(=O)O` [PCM-0215516], the inhibition at 10 µM under setting [1] is -13.6%.

Turning to `C[C@H](CCC(=O)NCCS(=O)(=O)O)[C@H]1CC[C@H]2[C@@H]3[C@@H](O)C[C@@H]4C[C@H](O)CC[C@]4(C)[C@H]3CC[C@]12C` [PCM-0215517], the inhibition at 10 µM under setting [1] came to 5.4%.

On to `Cc1nc(-c2cn3c(n2)-c2ccc(-c4cnn(C(C)(C)C(N)=O)c4)cc2OCC3)n(C(C)C)n1` [PCM-0215518], for which, under setting [1], the inhibition at 10 µM turned out to be 0%.

In the case of `C=CC(=O)N1CCC[C@H](n2c(=O)n(-c3ccc(Oc4ccccc4)cc3)c3c(N)ncnc32)C1` [PCM-0215519], the inhibition at 10 µM under setting [1] stood at 97.2%.

For `O=C(NC1CC1)c1cc(-c2cccs2)on1` [PCM-0215520], the inhibition at 10 µM under setting [1] is -2.3%.

Consider `CC[C@H](C)[C@@H]([C@@H](CC(=O)N1CCC[C@H]1[C@H](OC)[C@@H](C)C(=O)N[C@H](C)[C@@H](O)c1ccccc1)OC)N(C)C(=O)[C@@H](NC(=O)[C@@H](NC)C(C)C)C(C)C` [PCM-0215521] (H-[NMeV]V[Dil][Dolaproine]-X2), for which the inhibition at 10 µM (read-out: BTK inhibition (%)) is -3.9%.

`CN(C)C(=S)NN=C(c1ccccn1)c1ccccn1` [PCM-0215522]: the inhibition at 10 µM under setting [1] was determined as 20.1%.

Consider `COc1cccc(-c2ccc(NC(=O)C3=C(C(=O)O)CCC3)c(F)c2)c1` [PCM-0215523], for which the inhibition at 10 µM under setting [1] is -75.9%.

As to `CCC[C@H](N[C@H]1CCc2cc(F)cc(F)c2C1)C(=O)Nc1cn(C(C)(C)CNCC(C)(C)C)cn1` [PCM-0215524], the inhibition at 10 µM under setting [1] is -3.9%.

For `COc1nc(OCc2cccc(-c3ccccc3)c2C)ccc1CNCCNC(C)=O` [PCM-0215525], the inhibition at 10 µM under setting [1] is -51.7%.

Turning to `O=C(O)C(=O)c1cn(Cc2ccccc2)c2ccc(-c3ccc(OC(F)(F)F)cc3)cc12` [PCM-0215526], under setting [1], the inhibition at 10 µM came out at 34%.

In the case of `CCC1C/C(=C\c2cccnc2)C(=O)/C(=C/c2cccnc2)C1` (centres unmarked) [PCM-0215528], the inhibition at 10 µM under setting [1] was determined as 10%.

In the case of `C[C@@H]1COCCN1c1cc(C2([S@](C)(=N)=O)CC2)nc(-c2ccnc3[nH]ccc23)n1` [PCM-0215530], the inhibition at 10 µM under setting [1] was -4.1%.

Turning to `O=[N+]([O-])c1ccc(S(=O)(=O)N2CCN(c3ccnc4cc(Cl)ccc34)CC2)c([N+](=O)[O-])c1` [PCM-0215531], under setting [1], the inhibition at 10 µM is -12.4%.

For the compound `CCCCNc1ncc2c(-c3ccc(CN4CCN(C)CC4)cc3)cn(C3CCC(O)CC3)c2n1` (centres unmarked) [PCM-0215532], the inhibition at 10 µM under setting [1] is 55.9%.

`OC(CNc1ccccc1)Cn1c2ccc(Br)cc2c2cc(Br)ccc21` (centres unmarked) [PCM-0215533]: the inhibition at 10 µM under setting [1] is 44.8%.

With `Cc1ccccc1CN1C(=O)C2=C(CCN(Cc3ccccc3)C2)N2CCN=C12` [PCM-0215534], under “read-out: BTK inhibition (%)”, the inhibition at 10 µM is -13.8%.

For the compound `O=c1[nH]c2ccccc2n1C1CCN(Cc2ccc(-c3[nH]c4cc5ncnc5cc4nc3-c3ccccc3)cc2)CC1` [PCM-0215535], the inhibition at 10 µM under setting [1] stood at 18.6%.

For the compound `CC(=O)O/N=C1/C(c2c(O)[nH]c3cc(Br)ccc23)=Nc2ccccc21` [PCM-0215536], under setting [1], the inhibition at 10 µM is 60.7%.

For the compound `Cc1cc(C)nc(SCC(=O)Nc2ncc(Cc3cccc4ccccc34)s2)n1` [PCM-0215537], the inhibition at 10 µM under setting [1] is 2.3%.

For `Cc1nn(C)c(COc2ccc(N3CCN(S(=O)(=O)N(C)C)CC3)cc2)c1-c1cccc2c(CCCOc3cccc4ccccc34)c(C(=O)O)n(CCN3CCOCC3)c12` [PCM-0215538], the inhibition at 10 µM under setting [1] was 5.1%.

For the compound `C[C@H](Nc1ncnc2nc[nH]c12)c1cc2ccc(F)cc2nc1-c1ccccn1` [PCM-0215539], the inhibition at 10 µM under setting [1] worked out at 3.4%.

With `CC(O)c1cc(C(=O)N[C@@H](C)Cn2ccc(-c3ccc(C#N)c(Cl)c3)n2)n[nH]1` (some centres unmarked) [PCM-0215540], under setting [1], the inhibition at 10 µM is -20.8%.
